Results on three compounds are retold here after ChEMBL document CHEMBL1125278, “Novel cerebroprotective agents with central nervous system stimulating activity. 2. Synthesis and pharmacology of the 1-(acylamino)-7-hydroxyindan derivatives” (1991).

Type in all cases: functional
Assay [1] has as its system Mus musculus. The assay can be described thus: Time of recovery of righting reflux (RRT) in seconds was measured after iv administration of 2.5 mg/kg in mice for the promotional effect on recovery from coma.
Assay [2] deals with Mus musculus. The assay can be described thus: Compound was tested for the anesthetic effect and the sleeping time (ST) was recorded at a dose of 1 mg/kg administered intraperitoneally. As to conditions: route intraperitoneal.
The test system of assay [3] is Mus musculus. The assay can be described thus: Antihypoxic effect by the ratio of survival time (SVT) of test mice to that of control group at a dose of 1 mg/kg administered intraperitoneally. As to conditions: route intraperitoneal.
Assay [4] has as its system Mus musculus. The assay can be described thus: Time of recovery of spontaneous movement (SMT) in seconds was measured after iv administration of 2.5 mg/kg in mice for the promotional effect on recovery from coma.
For assay [5], the system named is Mus musculus. The assay can be described thus: Antihypoxic effect by the ratio of survival time (SVT) of test mice to that of control group at a dose of 3 mg/kg administered intraperitoneally. The note with it: route intraperitoneal.
For assay [6], the system named is Mus musculus. The assay can be described thus: Time of recovery of spontaneous movement (SMT) in seconds was measured after iv administration of 0.625 mg/kg in mice for the promotional effect on recovery from coma.
For assay [7], the system named is Mus musculus. The assay can be described thus: Antihypoxic effect by the ratio of survival time (SVT) of test mice to that of control group at a dose of 0.3 mg/kg administered intraperitoneally. As to conditions: route intraperitoneal.
Assay [8] deals with Mus musculus. The assay can be described thus: Time of recovery of spontaneous movement (SMT) in seconds was measured after iv administration of 1.25 mg/kg in mice for the promotional effect on recovery from coma.
Assay [9] has as its system Mus musculus. The assay can be described thus: Time of recovery of righting reflux (RRT) in seconds was measured after iv administration of 1.25 mg/kg in mice for the promotional effect on recovery from coma.
Assay [10] deals with Mus musculus. The assay can be described thus: Time of recovery of righting reflux (RRT) in seconds was measured after iv administration of 0.625 mg/kg in mice for the promotional effect on recovery from coma.
For assay [11], the system named is Mus musculus. The assay can be described thus: Antihypoxic effect tested by the ratio of survival time (SVT) of test mice to that of control group, dosed intraperitoneally at 30 mg/kg. The note with it: route intraperitoneal.
Assay [12] has as its system Mus musculus. The assay can be described thus: Compound was tested for the anesthetic effect and the sleeping time (ST) was recorded at a dose of 3 mg/kg administered intraperitoneally. The note with it: route intraperitoneal.
The test system of assay [13] is Mus musculus. The assay can be described thus: Compound was tested for the anesthetic effect and the sleeping time (ST) was recorded at a dose of 0.3 mg/kg administered intraperitoneally. The note with it: route intraperitoneal.
The subject of assay [14] is Mus musculus. The assay can be described thus: Time of recovery of righting reflux (RRT) in seconds was measured after administration of 30 mg/kg intraperitoneally in mice for the promotional effect on recovery from coma. The note with it: route intraperitoneal.
In assay [15] the test system is Mus musculus. The assay can be described thus: Compound was tested for the anesthetic effect and the sleeping time (ST) was recorded at a dose of 10 mg/kg administered intraperitoneally. The note with it: route intraperitoneal.
Assay [16] deals with Mus musculus. The assay can be described thus: Time of recovery of spontaneous movement (SMT) in seconds was measured after administration of 40 mg/kg orally in mice for the promotional effect on recovery from coma. The note with it: route oral.
The subject of assay [17] is Mus musculus. The assay can be described thus: Antihypoxic effect by the ratio of survival time (SVT) of test mice to that of control group at a dose of 20 mg/kg administered intraperitoneally. As to conditions: route intraperitoneal.
Assay [18] has as its system Mus musculus. The assay can be described thus: Antihypoxic effect by the ratio of survival time (SVT) of test mice to that of control group at a dose of 40 mg/kg administered intraperitoneally. As to conditions: route intraperitoneal.
Assay [19] relates to Mus musculus. The assay can be described thus: Time of recovery of spontaneous movement (SMT) in seconds was measured after administration of 10 mg/kg intraperitoneally in mice for the promotional effect on recovery from coma. The note with it: route intraperitoneal.
The test system of assay [20] is Mus musculus. The assay can be described thus: Time of recovery of righting reflux (RRT) in seconds was measured after administration of 10 mg/kg intraperitoneally in mice for the promotional effect on recovery from coma. As to conditions: route intraperitoneal.
For assay [21], the system named is Mus musculus. The assay can be described thus: Time of recovery of righting reflux (RRT) in seconds was measured after administration of 100 mg/kg intraperitoneally in mice for the promotional effect on recovery from coma. As to conditions: route intraperitoneal.
Assay [22] deals with Mus musculus. The assay can be described thus: Time of recovery of righting reflux (RRT) in seconds was measured after administration of 40 mg/kg orally in mice for the promotional effect on recovery from coma. As to conditions: route oral.
Assay [23] relates to Mus musculus. The assay can be described thus: Time of recovery of spontaneous movement (SMT) in seconds was measured after administration of 30 mg/kg intraperitoneally in mice for the promotional effect on recovery from coma. The note with it: route intraperitoneal.
Assay [24] concerns Mus musculus. The assay can be described thus: Time of recovery of spontaneous movement (SMT) in seconds was measured after administration of 100 mg/kg intraperitoneally in mice for the promotional effect on recovery from coma. The note with it: route intraperitoneal.
Assay [25] deals with Mus musculus. The assay can be described thus: Antihypoxic effect by the ratio of survival time (SVT) of test mice to that of control group at a dose of 10 mg/kg administered intraperitoneally. As to conditions: route intraperitoneal.
Assay [26] concerns Mus musculus. The assay can be described thus: Time of recovery of righting reflux (RRT) in seconds was measured after oral administration of 30 mg/kg in mice for the promotional effect on recovery from coma.
Assay [27] has as its system Mus musculus. The assay can be described thus: Time of recovery of righting reflux (RRT) in seconds was measured after oral administration of 100 mg/kg orally in mice for the promotional effect on recovery from coma.
In assay [28] the test system is Mus musculus. The assay can be described thus: Compound was tested for the anesthetic effect and the sleeping time (ST) was recorded at a dose of 30 mg/kg administered intraperitoneally. As to conditions: route intraperitoneal.
For assay [29], the system named is Mus musculus. The assay can be described thus: Time of recovery of spontaneous movement (SMT) in seconds was measured after administration of 10 mg/kg orally in mice for the promotional effect on recovery from coma. The note with it: route oral.
Assay [30] concerns Mus musculus. The assay can be described thus: Spontaneous movement (SMT) in seconds, was measured after oral administration of 30 mg/kg in mice to test for promoting effects on recovery from coma. The note with it: 30 mg/kg.
The subject of assay [31] is Mus musculus. The assay can be described thus: Time of recovery of righting reflux (RRT) in seconds was measured after oral administration of 30 mg/kg orally in mice for the promotional effect on recovery from coma.
Assay [32] deals with Mus musculus. The assay can be described thus: Antihypoxic effect by the survival time (SVT) in mice at a dose of 3 mg/kg administered intraperitoneally. As to conditions: route intraperitoneal.
The subject of assay [33] is Mus musculus. The assay can be described thus: Time of recovery of righting reflux (RRT) in seconds was measured after oral administration of 10 mg/kg orally in mice for the promotional effect on recovery from coma.
Assay [34] concerns Mus musculus. The assay can be described thus: Time of recovery of spontaneous movement (SMT) in seconds was measured after administration of 100 mg/kg orally in mice for the promotional effect on recovery from coma. As to conditions: route oral.
The subject of assay [35] is Mus musculus. The assay can be described thus: Antihypoxic effect tested by the ratio of survival time (SVT) of test mice to that of control group, dosed orally 30 mg/kg. The note with it: route oral.

Where “and” joins values, the source holds several entries; their conditions need not be identical. Equal values may be shown once.

Take `NC(=O)[C@@H]1CCCN1C(=O)[C@H](Cc1c[nH]cn1)NC(=O)[C@@H]1CCC(=O)N1` [PROTIRELIN]: the RRT stood at 40.8 s in the assay on Mus musculus [1], 34.1 s with Mus musculus [9] and 100.1 s in the assay on Mus musculus [10]. Also, the values for the ST in the assay on Mus musculus [2], with Mus musculus [12] and with Mus musculus [13] were 70.7 s, 73.2 s and 83.1 s, respectively. Further, the SVT with Mus musculus [3] worked out at 47.1%; in the assay with Mus musculus [5], 43.4%; with Mus musculus [7], 83.8%; with Mus musculus [11] it was 43.4%. Besides, the SMT in the assay with Mus musculus [4] was found to be 40.9 s; with Mus musculus [6] it was 118.2 s; with Mus musculus [8] it was 48.2 s.
For `CCCC(C)C1(CC)C(=O)N=C([O-])NC1=O.[Na+]` (centres undefined) [PENTOBARBITAL SODIUM], the RRT in the assay on Mus musculus [14] was determined as 494 s; with Mus musculus [20] it was 175.5 s; with Mus musculus [21], 494 s; in the assay with Mus musculus [22], 494 s. For the same compound, the ST with Mus musculus [15] is 133 s. Besides, the SMT in the assay with Mus musculus [16] was 283 s; in the assay with Mus musculus [19], 176.3 s; with Mus musculus [23], 283 s; in the assay with Mus musculus [24], 283 s. In addition, the SVT is 218.5% in the assay with Mus musculus [17]; 306.7% and 443.6% in the assay on Mus musculus [18]; 134.9% with Mus musculus [25].
For `Cc1cc(C)c2c(c1O)C(NC(=O)CN1CCN(C)CC1)C(C)(C)C2` (centres undefined), the RRT with Mus musculus [26] worked out at 54.9 s; in the assay on Mus musculus [27], 25.8 s; with Mus musculus [31] it was 45.7 s; with Mus musculus [33], 61.2 s. Moreover, the ST in the assay on Mus musculus [15] worked out at 78.8 s; in the assay on Mus musculus [28] it was 84.3 s; in the assay with Mus musculus [12], 92.7 s. In addition, the SMT with Mus musculus [29] is 60.9 s; in the assay with Mus musculus [30], 43.1 s and 49.8 s; in the assay on Mus musculus [34], 36.2 s. Besides, the SVT in the assay on Mus musculus [11] (30 mg/kg) was 145.6% and 145.2%; with Mus musculus [32], 93%; in the assay on Mus musculus [25], 92.5%; in the assay with Mus musculus [35], 86.4%.
